Values joined by “and” are separate entries in the source; they are usually repeats but may differ in a detail not shown here. Equal values may be shown once.
Legend:
[1] = xn = mol fraction of the nth substance listed; settings: 101 kPa, Liquid
[2] = 101 kPa, Liquid

CCCCCCCCO [octan-1-ol] + Clc1ccccc1
[1], x2 = 0
Settings	mass density [kg/m3]	speed of sound [m/s]	viscosity [mPa·s]
298.15 K	821.826	1347.8	7.661
303.15 K	818.23	1338	6.402
308.15 K	814.737	1314.3	5.425
313.15 K	810.098	1297.6	4.628

CCCCCCCO [heptan-1-ol] + Clc1ccccc1
[1], x2 = 0
Settings	mass density [kg/m3]	speed of sound [m/s]	viscosity [mPa·s]
298.15 K	818.732	1327.3	5.944
303.15 K	815.287	1313.6	5.069
308.15 K	811.737	1293.9	4.333
313.15 K	808.162	1277.2	3.726

Clc1ccccc1 [chlorobenzene] + CCCCCCCO
[1]
Settings	mass density [kg/m3]	speed of sound [m/s]	viscosity [mPa·s]
298.15 K, x1 = 0.1306	846.348	1316.7	4.469
298.15 K, x1 = 0.2566	874.819	1305.5	3.335
298.15 K, x1 = 0.3866	906.448	1293.8	2.453
298.15 K, x1 = 0.4947	934.739	1284	1.911
298.15 K, x1 = 0.5878	960.727	1276	1.557
298.15 K, x1 = 0.6827	988.992	1269.1	1.273
298.15 K, x1 = 0.7682	1016.23	1264.6	1.073
298.15 K, x1 = 0.8521	1044.88	1262.7	0.918
298.15 K, x1 = 0.9255	1071.67	1263.8	0.817
298.15 K, x1 = 1	1100.97	1268	0.757
303.15 K, x1 = 0.1306	842.689	1300	3.832
303.15 K, x1 = 0.2566	870.964	1289	2.896
303.15 K, x1 = 0.3866	902.362	1277.6	2.164
303.15 K, x1 = 0.4947	930.425	1268.2	1.709
303.15 K, x1 = 0.5878	956.224	1260.7	1.406
303.15 K, x1 = 0.6827	984.268	1253.8	1.16
303.15 K, x1 = 0.7682	1011.3	1248.7	0.984
303.15 K, x1 = 0.8521	1039.69	1245.4	0.85
303.15 K, x1 = 0.9255	1066.23	1245.5	0.764
303.15 K, x1 = 1	1095.1	1249.4	0.714
308.15 K, x1 = 0.1306	838.9	1283.3	3.311
308.15 K, x1 = 0.2566	866.926	1272.1	2.532
308.15 K, x1 = 0.3866	898.052	1260.4	1.922
308.15 K, x1 = 0.4947	925.892	1250.2	1.543
308.15 K, x1 = 0.5878	951.47	1242	1.283
308.15 K, x1 = 0.6827	979.252	1235	1.059
308.15 K, x1 = 0.7682	1006.02	1230.1	0.915
308.15 K, x1 = 0.8521	1034.12	1227.6	0.816
308.15 K, x1 = 0.9255	1060.42	1228	0.733
308.15 K, x1 = 1	1089.08	1230.9	0.677
313.15 K, x1 = 0.1306	835.146	1266.5	2.872
313.15 K, x1 = 0.2566	862.967	1255.6	2.219
313.15 K, x1 = 0.3866	893.905	1243.8	1.705
313.15 K, x1 = 0.4947	921.55	1233.6	1.378
313.15 K, x1 = 0.5878	946.95	1225.3	1.135
313.15 K, x1 = 0.6827	974.575	1217.9	0.953
313.15 K, x1 = 0.7682	1001.13	1212.9	0.822
313.15 K, x1 = 0.8521	1029.02	1209.9	0.723
313.15 K, x1 = 0.9255	1055.08	1209.7	0.662
313.15 K, x1 = 1	1083.66	1212.6	0.617

Clc1ccccc1 [chlorobenzene]
[2]
Settings	mass density	speed of sound [m/s]	viscosity [mPa·s]
298.15 K	1100.97 kg/m3 and 1100.67 kg/m3	1268	0.757
303.15 K	1095.1 kg/m3	1249.4	0.714
308.15 K	1089.08 kg/m3	1230.9	0.677
313.15 K	1083.66 kg/m3	1212.6	0.617

CCCCCCO [hexan-1-ol] + Clc1ccccc1
[1], x2 = 0
Settings	mass density [kg/m3]	speed of sound [m/s]	viscosity [mPa·s]
298.15 K	815.23	1304.7	4.594
303.15 K	812.118	1287.9	3.887
308.15 K	808.482	1271.1	3.359
313.15 K	804.811	1254.5	2.914

CCCCCCCCCCO [decan-1-ol]
[2]
Settings	mass density [kg/m3]	speed of sound [m/s]	viscosity [mPa·s]
298.15 K	826.762	1380	11.83
303.15 K	822.853	1365	9.754
308.15 K	819.427	1346.1	8.135
313.15 K	815.983	1329.3	6.842
